Source: ChEMBL document CHEMBL4477188, “Callyazepin and (3R)-Methylazacyclodecane, Nitrogenous Macrocycles from a Callyspongia sp. Sponge” (J Nat Prod, 2016)

Experiments:
K562 = experiment: Cytotoxicity against human K562 cells assessed as reduction in cell viability after 72 hrs by MTT assay; format: functional, cell-based; settings: K562, 72 h
A549 = experiment: Cytotoxicity against human A549 cells assessed as reduction in cell viability after 72 hrs by MTT assay; format: functional, cell-based; settings: A549, 72 h
Staphylococcus aureus = experiment: Antimicrobial activity against Staphylococcus aureus ATCC 6538P after 24 hrs by serial two fold dilution method; format: functional
Bacillus spizizenii = experiment: Antimicrobial activity against Bacillus subtilis ATCC 6633 after 24 hrs by serial two fold dilution method; format: functional; settings: ATCC 6633, 24 h
Micrococcus luteus = experiment: Antimicrobial activity against Micrococcus luteus IFC 12708 after 24 hrs by serial two fold dilution method; format: functional; settings: IFC 12708, 24 h
Proteus vulgaris = experiment: Antimicrobial activity against Proteus vulgaris ATCC 3851 after 24 hrs by serial two fold dilution method; format: functional; settings: ATCC 3851, 24 h
Salmonella typhimurium = experiment: Antimicrobial activity against Salmonella typhimurium ATCC 14028 after 24 hrs by serial two fold dilution method; format: functional, Salmonella enterica subsp. enterica serovar Typhimurium; settings: Salmonella enterica, ATCC 14028, 24 h
Escherichia coli = experiment: Antimicrobial activity against Escherichia coli ATCC 25922 after 24 hrs by serial two fold dilution method; format: functional; settings: ATCC 25922, 24 h

Row | MIC (Staphylococcus aureus) | MIC (Bacillus spizizenii) | MIC (Micrococcus luteus) | MIC (Proteus vulgaris) | MIC (Salmonella typhimurium) | MIC (Escherichia coli) | SMILES | IC50 (K562) | IC50 (A549)
1 | ≥ 128 µM | ≥ 128 µM | ≥ 128 µM | ≥ 128 µM | ≥ 128 µM | ≥ 128 µM | C[C@@H]1CCCCCCCNC1 | 3.2 µM | 3800 nM
2 | ≥ 128 µM | ≥ 128 µM | ≥ 128 µM | ≥ 128 µM | ≥ 128 µM | ≥ 128 µM | COC(=O)[C@H](C)[N@@+]1(C=O)CC[C@H]2CCCCCCCCCC[C@H]2[C@@H](C)C1 | 7.4 µM | 3000 nM
3 |  |  |  |  |  |  | COc1cccc2c1C(=O)c1c(O)c3c(c(O)c1C2=O)C[C@@](O)(C(=O)CO)C[C@@H]3O[C@H]1C[C@H](N)[C@H](O)[C@H](C)O1 [DOXORUBICIN] | 0.8 µM | 500 nM
